Data from patent US20240374624A1, “NOVEL USE OF AT LEAST A HUMAN MILK OLIGOSACCHARIDE” (DSM IP ASSETS B.V., priority 2021, published 2024).

System: C. acnes (ATCC reference 11827)
Assay: Cutibacterium acnes Time-Kill Assay
Format: cell-based
Settings: for Log-step reduction (16 h) / Log-step reduction (24 h): reduction compared to initial log cfu/ml of 5.38, n=3; for effect on C. acnes (reduction or growth promotion, in words): summary of the time-kill study
Protocol: Cutibacterium acnes Time-Kill Assay:
Seven different HMOs were screened for their potential anti-microbial activities against C. acnes (ATCC reference 11827). The action of ingredients and combinations thereof is assessed through a miniaturized method performed in liquid media in 96 deepwell plates format. The inhibition of the growth of C. acnes is compared to the same strain growth in corresponding optimal media.
The different ingredients are mixed at two different concentrations in growth medium (final volume 2 mL) in deepwell plates (n=3 for each concentration).
Analysis controls are prepared and used identically to samples: • A growth control of C. acnes in the corresponding culture medium; • A […] consisting of Phenoxyethanol prepared at 0.5% (v/v) directly in the culture medium.
Then, samples are contaminated with C. acnes, inoculum at final concentration of 3.7×10^5 CFU/mL, and incubated at 37° C.±2.5° C. during 24 h. At each defined timepoint (i.e. 30 min, 2 h, 4 h, 16 h and 24 h), a pick-up of the contaminated samples is performed (20 L) after gentle agitation.
To perform the counting, aliquots of the contaminated samples are serially diluted (decimal dilutions) in culture medium in 96-well plates with triphenyltetrazolium and incubated at 37° C.±2.5° C. during 48 h. After 48 h at the optimal growing conditions, the last dilution showing a pink color (triphenyltetrazolium) or turbidity indicates the contamination rate and allow the determination of the corresponding microbial population.
The results of the Time-Kill study are presented in the table below data are shown as log-step reduction compared to initial log cfu/ml of 5.38.

[1] = 0.10 wt.-% ingredient in growth medium
[2] = 0.5 wt.-% ingredient in growth medium

Row | Molecule | Log-step reduction (16 h) [1] [log-step] | Log-step reduction (24 h) [1] [log-step] | Log-step reduction (16 h) [2] [log-step] | Log-step reduction (24 h) [2] [log-step] | effect on C. acnes (reduction or growth promotion, in words)
1 | 2′-fucosyllactose [2′FL] | 0.5 | 0.5 | 1.5 | 1.5 | still provided a reduction of C. acnes
2 | 3-fucosyllactose [3FL (Ref), reference compound] | – | – | −0.4 | −0.4 | promoted C. acnes growth
3 | CC(=O)N[C@H]1[C@H](O[C@H]2[C@@H](O)[C@@H](CO)O[C@@H](O[C@H]3[C@H](O)[C@@H](O)C(O)O[C@@H]3CO)[C@@H]2O)O[C@H](CO)[C@@H](O[C@@H]2O[C@H](CO)[C@H](O)[C@H](O)[C@H]2O)[C@@H]1O (mixture of isomers) [LNnT (Ref), lacto-N-neotetraose, reference compound] | −0.4 | −0.4 | −0.5 | −0.5 | promoted C. acnes growth
4 | CC(=O)N[C@H]1[C@H](O[C@H]2[C@@H](O)[C@@H](CO)O[C@@H](O[C@H]3[C@H](O)[C@@H](O)C(O)O[C@@H]3CO)[C@@H]2O)O[C@H](CO)[C@@H](O)[C@@H]1O[C@@H]1O[C@H](CO)[C@H](O)[C@H](O)[C@H]1O (stereo partly drawn) [LNT, lacto-N-tetraose] | 0.5 | 0.5 | 0.5 | 0.5 | still provided a reduction of C. acnes
